Measurements reported in paper PMC10819888, “Benzimidazole-Based Derivatives as Apoptotic Antiproliferative Agents: Design, Synthesis, Docking, and Mechanistic Studies” (Molecules, 2024).

How the values were obtained:
Type in all cases: cell-based, human
Details in all cases: PC-3 cell line
Bax = Bax activation assay
Method: For more details, see Supplementary Materials.
4.2.5. Bax activation assay
Bring all reagents, except the human Bax-α Standard, to room temperature for at least 30 minutes prior to opening. The human Bax -α Standard solution should not be left at room temperature for more than 10 minutes. All standards, controls and samples should be run in duplicate. Refer to the Assay Layout Sheet to determine the number of wells to be used and put any remaining wells with the desiccant back into the pouch and seal the ziploc. Store unused wells at 4 °C. Pipet 100 μL of Assay Buffer into the S0 ( 0 pg/mL standard) wells. Pipet 100 μL of Standards #1 through #6 into the appropriate wells. Pipet 100 μL of the Samples into the appropriate wells. Tap the plate gently to mix the contents. Seal the plate and incubate at room temperature on a plate shaker for 1 hour at ~500 rpm. Empty the contents of the wells and wash by adding 400 μL of wash solution to every well. Repeat the wash 4 more times for a total of 5 washes. After the final wash, empty or aspirate the wells and firmly tap the plate on a lint fr ee paper towel to remove any remaining wash buffer. Pipet 100 μL of yellow Antibody into each well, except the Blank. Seal the plate and incubate at room temperature on a plate shaker for 1 hour at ~500 rpm. Empty the contents of the wells and wash by addi ng 400 μL of […]
the final wash, empty or aspirate the wells and firmly tap the plate on a lint free paper towel to remove any remaining wash buffer. Add 100 μL of blue Co njugate to each well, except the Blank. Seal the plate and incubate at room temperature on a plate shaker for 30 minutes at ~500 rpm. Empty the contents of the wells and wash by adding 400 μL of wash solution to every well. Repeat the wash 4 more times for a total of 5 washes .
After the final wash, empty or aspirate the wells and firmly tap the plate on a lint free paper towel to remove any remaining wash buffer. Pipet 100 μL of Substrate Solution into each well. Incubate for 30 minutes at room temperature on a plate shaker at ~500 rpm. Pipet 100 μL Stop Solution to each well. Blank the plate reader against the Blank wells, read the optical density at 450 nm. Calculate the average net Optical Density (OD) bound for each standard and sample by subtracting the average Blank OD from the average OD for each standard and sample. Using linear graph paper, plot the Average Net OD for each standard versus Bax concentration in each standard.
Approximate a straight line through the points. The concentration of Bax in the unknowns can be determined by interpolation. […]

caspase-3 = test: Caspase-3 activation assay
Excerpt: Caspase-3 is a key caspase that cleaves numerous cell proteins, resulting in apoptosis. […] They elevated the protein caspase-3 in the PC-3 cancer cell line by around seven to nine times compared to untreated control cells.
(§1) For more details, see Supplementary Materials. […]
4.2.3. Caspase-3 activation assay
Allow all reagents to reach room temperature before use. Gently mix all liquid reagents prior to use. Determine the number of 8-well strips needed for the assay. Insert these in the frame(s) for current use. Add 100 μl of the Standard Diluent Buffer to the zero standard wells. Well(s) reserved for chromogen blank should be left empty. Add 100 μl of standards and controls or diluted samples to the appropriate microtiter wells. The sample dilution chosen should be optimized for each experimental system. Tap gently on side of plate to mix. Cover wells with plate cover and incubate for 2 hours at room temperature. Thoroughly aspirate or decant solution from wells and discard the liquid, Wash wells 4 times. Pipette 100 μl of Caspase-3 (Active) Detection Antibod y solution into each well except the chromogen blank(s). Tap gently on the side of the plate to mix.
Cover plate with plate cover and incubate for 1 hour at room temperature. Thoroughly aspirate or decant solution from wells and discard the liquid, Wash well s 4 times. Add 100 μl Anti-Rabbit IgG HRP Working Solution to each well except the chromogen blank(s). Prepare the working dilution as described in Preparing IgG HRP. Cover wells with the plate cover and incubate for 30 minutes at room temperature. Thoroughly aspirate or decant solution from wells and discard the liquid. Wash wells 4 times. Add 100 μl of Stabilized Chromogen to each well. The liquid in the wells will begin to turn blue. Incubate for 30 minutes at room temperature and in the dark. The incuba tion time for chromogen substrate is often determined by the microtiter plate reader used. Many plate readers have the capacity to record a maximum optical density (O.D.) of 2.0. The O.D. values should be monitored, and the substrate reaction stopped befor e the O.D. of […]
(§2) the positive wells exceeds the limits of the instrument. The O.D. values at 450 nm can only be read after the Stop Solution has been added to each well. If using a reader that […]
100 μl of Stop Solution to each well. Tap side of plate gently to mix. The solution in the wells should change from blue to yellow. Read the absorbance of each well at 450 nm having blanked the plate reader against a chromogen blank composed of 100 μl each of Stabilized Chromogen and Stop Solution. Read the plate within 2 hours after adding the Stop Solution. Use a curve fitting software to generate the standard curve. A four-parameter algorithm provides the best standard curve fit. Read the concentrations for unknown samples and controls from the standard curve. Multiply value(s) obtained for sample(s) by the appropriate dilution factor to correct for the dilution in step 3. Samples producing signals greater than that of the highest standard should be diluted in Standard Diluent Buffer and reanalyzed. […]
A standard curve is […]
prepared from 7human Caspase-8 standard dilutions and human Caspase-8 concentration determined.

caspase-8 = test: Caspase-8 activation assay
Method: as §1, §2
100 μl of Stop Solution to each well. Tap side of plate gently to mix. The solution in the wells should change from blue to yellow. Read the absorbance of each well at 450 nm having blanked the plate reader against a chromogen blank composed of 100 μl each of Stabilized Chromogen and Stop Solution. Read the plate within 2 hours after adding the Stop Solution. Use a curve fitting software to generate the standard curve. A four- […]
Read the concentrations for unknown samples and controls from the standard curve. Multiply value(s) obtained for sample(s) by the appropriate dilution factor to correct for the dilution in step 3. Samples […]
Diluent Buffer and reanalyzed.
4.2.4. Caspase-8 activation assay
Cells were obtained from American Type Culture Collection, cells were grown in RPMI […]
tested for caspase8, and lysed with Cell Extraction Buffer. This lysate was diluted in […]
caspase-8 content. (Cells are Plated in a density of 1.2 – 1.8 × 10,000 cells/well in a volume of 100µl complete growth medium + 100 ul of the tested compound per well in a 96-well plate for 24 hours before the enzyme assay for Tubulin.). The absorbance of each microwell was read on a spectro-photometer at 450 nm. A standard curve is prepared from 7human Caspase-8 standard dilutions and human Caspase-8 concentration determined.

SMILES | Bax Conc (Bax) [pg/mL] | Bax increase compared to untreated PC-3 cancer cells (Bax) [fold] | Bax level (Bax) [pg/mL] | Caspase-3 Conc (caspase-3) [pg/mL] | caspase-3 protein level (caspase-3) [pg/mL] | Caspase-8 Conc (caspase-8) [ng/mL] | caspase-8 increase compared to untreated control cell (caspase-8) [times] | caspase-8 level (caspase-8) [ng/mL] | Bax Fold Change (Bax; vs control) | Caspase-3 Fold Change (caspase-3; vs control) | Caspase-8 Fold Change (caspase-8; vs control)
O=C(NN=Cc1ccc([N+](=O)[O-])cc1)c1ccc2[nH]c(-c3ccc(Cl)cc3)nc2c1 [Compound 4c, N′-(4-Nitrobenzylidene)-2-(4-chlorophenyl)-1H-benzimidazole-5-carbohydrazide] | 185 | 26 | 185 | 365 ± 12 | 365 ± 12 | 1.90 | 16 | 1.90 |  |  | 
O=C(NN=Cc1ccc(Cl)cc1)c1ccc2[nH]c(-c3ccc(Cl)cc3)nc2c1 [Compound 4e, N′-(4-Chlorobenzylidene)-2-(4-chlorophenyl)-1H-benzimidazole-5-carbohydrazide] | 220 | 31 | 220 | 470 ± 15 | 470 ± 15 | 2.20 | 18 | 2.20 | 31 | 9 | 18
